Results on two compounds are retold here after patent publication US7771726B2, “Use of synthetic glycolipids as universal adjuvants for vaccines against cancer and infectious diseases” (New York University, priority 2003, dated 2010).

The subject of test [1] is HIV specific CD4+/CD8+ T-cell responses. As to the kind of experiment: adjuvant effects on DNA vaccination in mice (FIG. 1). The class given is in vivo. From the text: FIG. 1 depicts the adjuvant effects of α-GalCer on DNA vaccination in mice, and the enhancement of HIV-specific CD4+/CD8+ T-Cell responses;
FIG. 1 depicts the adjuvant effects of the α-GalCer on DNA vaccination in mice.

Another test concerns murine NKT cells. In words: stimulation of murine NKT cells. Type of test: cell-based.
In test [2] the test system is mouse CD1d-restricted lymphocytes that express a semi-invariant TCR. To be noted: Kawano et al., 1997; cited from earlier work.
For test [3], the system named is human CD1d-restricted lymphocytes that express a semi-invariant TCR. To be noted: Kawano et al., 1997; cited from earlier work.
For test [4], the system named is Gag-specific CD8+ and CD4+ T cell response. In words: adjuvant activity with DNA vaccine encoding an HIV Gag sequence (FIGS. 3A and 3B). Type of test: in vivo. To be noted: for Gag-specific CD8+ T cell response: FIG. 3A. The source says:
FIGS. 3A and 3B depict the adjuvant activity of α-GalCer and CRONY 101, and the enhancement of a Gag-specific CD8+ T-cell response elicited by a DNA vaccine encoding an HIV-Gag sequence.
Further studies used a naked DNA plasmid encoding an HIV Gag sequence, as a vaccine.

The next test relates to human NKT cells. As to the kind of experiment: stimulation of human NKT cells. Type of test: cell-based.
The test system of another test is malaria. As to the kind of experiment: malaria disease model in mice, activity compared to α-GalCer. To be noted: disease model requiring Th1-type responses; relative to α-GalCer. The class given is in vivo. From the text:
(§1) As reported in copending U.S. patent application Ser. No. 10/206,155, α-Galactosylceramide (α-GalCer) is a glycolipid ligand for natural killer T (NKT) cells, which respond to the glycolipid and produce both interferon (IFN)-γ and interleukin (IL)-4. […] It has now been discovered that synthetic C-glycoside analogs of α-GalCer of general formula (I) act as an NKT cell ligand and display 100-1000 fold higher activity against tumor and malaria, by preferentially inducing the production of Th1-type cytokines, IFN-γ and IL-12, in vivo.

A further test deals with melanoma metastases. In words: melanoma metastases disease model, activity compared to α-GalCer. To be noted: disease model requiring Th1-type responses; relative to α-GalCer. Type of test: in vivo, mice.
Description: as §1

Test [5] concerns Th1-type cytokines, IFN-γ and IL-12; Th2 cytokine, IL-4. In words: cytokine production in vivo after administration to mice. To be noted: as compared to α-GalCer.
Description: as §1

The test system of test [6] is malaria antigen-specific CD8+ T-cell responses. As to the kind of experiment: adjuvant activity with suboptimal dose of recombinant adenovirus expressing a malarial antigen (FIG. 2). The class given is in vivo, mice. From the text: FIG. 2 depicts the adjuvant activity of CRONY 101, and the enhancement of a malaria-specific CD8+ T-cell response elicited by a recombinant adenovirus expressing a malaria antigen; and
In FIG. 2, the number of IFN secreting CD8+ T cells per million splenocytes is greater for CRONY 101 than for α-GalCer.
Thus, co-administration of α-C-GalCer to mice immunized with a suboptimal dose of a recombinant adenovirus expressing a malarial antigen enhanced protective antimalaria immunity and the level of malaria antigen-specific CD8^+ T-cell responses. Coadministration of 1 ng of CRONY 101 was compared to administration of 1 μg of α-GalCer.

Where [7] appears, read: DNA vaccine encoding an HIV Gag sequence.
The mark [8] stands for this setting: co-administration, mice immunized with suboptimal dose of recombinant adenovirus.

As for `CCCCCCCCCCCCCCCCCCCCCCCCCC(=O)N[C@@H](CO[C@H]1O[C@H](CO)[C@H](O)[C@H](O)[C@H]1O)[C@H](O)[C@H](O)CCCCCCCCCCCCCC` [α-GalCer, α-galactosyl-ceramide, reference compound], the “HIV specific CD4+/CD8+ T-cell responses” value in test [1] is listed as “enhancement”. In addition, the “stimulation of murine NKT cells” value in the test with murine NKT cells is recorded as “stimulate”. The “concentrations at which recognized” value in test [2] and in test [3] was “picomolar” each time. Also, the “Gag-specific CD8+ T cell response” value in [4] (setting [7]) is “enhancement”. In the test with human NKT cells, the “stimulation of human NKT cells” value is given as “stimulate”.
In the case of `CCCCCCCCCCCCCCCCCCCCCCCCCC(=O)N[C@@H](CCC1OC(CO)[C@H](O)C(O)[C@@H]1O)[C@H](O)[C@H](O)CCCCCCCCCCCCCC` (stereo partly drawn) [CRONY 101, 3′S,4′S,5′R-3′-N-hexacosanoyl-4′,5′-dihydroxynonadecyl-α-C-D-galactopyranoside], the “more potent activity than α-GalCer, malaria” value in the test with malaria worked out at 1000 fold. For the same compound, the “stimulation of murine NKT cells” value with murine NKT cells is on record as “stimulate”. Also, the “more potent activity than α-GalCer, melanoma metastases” value in the test on melanoma metastases is on record as 100 fold. Also, the “Gag-specific CD8+ T cell response” value in [4] (setting [7]) is on record as “enhances”. Besides, the “Gag-specific CD4+ T cell response” value in test [4] (FIG. 3B, DNA vaccine encoding a HIV-Gag sequence) is given as “enhancing”. Also, the “adjuvant activity compared with α-GalCer” value in [4] (FIGS. 3A and 3B, DNA vaccine encoding an HIV Gag sequence) is “more potent”. Further, the “stimulation of human NKT cells” value in the test on human NKT cells is given as “stimulate”. For the same compound, in test [5], the “population of the Th2 cytokine, IL-4” value is on record as “decreased” and the “production of the Th1-type cytokines” value is “prolonged production”. Also, the “increased number of malaria specific CD8+ cells” value in [6] (1 ng of CRONY 101 as compared to 1 μg of α-GalCer) is on record as “⅚”. Further, in [6] (FIG. 2, compared with α-GalCer), the “number of IFN secreting CD8+ T cells per million splenocytes” value is given as “greater”. The “adjuvant activity compared with α-GalCer” value in [6] (FIG. 2, recombinant adenovirus expressing a malaria antigen) is given as “more potent”. In test [6] (setting [8]), the “level of malaria antigen-specific CD8+ T-cell responses” value is listed as “enhanced” and the protective antimalaria immunity entry was “enhanced”.
